Measured values as given in patent US10864201B2, “Heteroaromatic compounds as Vanin inhibitors” (Boehringer Ingelheim International GmbH, priority 2018, dated 2020).

Target: FLAG-tagged Vanin-1 (AA 22-493, T26I) (Homo sapiens (Human), UniProt O95497, T26I)
Test: Vanin-1 enzymatic assay
Assay type: biochemical
Details: formation of pantothenic acid from D-pantethine (3 μM), RapidFire MS; geometric mean in case of multiple measurements; read-out: VNN 1 IC50
Procedure: The test compounds are dissolved in 100% DMSO at a concentration of 10 mM and in a first step diluted in DMSO to a concentration of 5 mM, followed by serial dilution steps in 100% DMSO. Dilution factor and number of dilution steps may vary according to needs. Typically 8 different concentrations by 1:5 dilutions are prepared, a further intermediate dilutions of the substances is carried out with assay buffer resulting in 1% final DMSO concentration in the assay.
0.1 nM of FLAG-tagged Vanin-1 (AA 22-493, T26I, produced internally) and test compounds are incubated at room temperature for 20 minutes in assay buffer (1 mM DTT, 0.0025% Brij-35, 50 mM HEPES, pH7.5). D-Pantethine (Sigma, Cat #P2125-5G) in assay buffer is added (final concentration 3 μM) and incubated for additional 30 minutes at room temperature. Total assay volume typically is 40 μl but might be adjusted according to needs. Reaction is stopped by adding equal volume of stop solution as the reaction mixture to reach 100 nM HD-pantothenic acid (as an internal standard) and 1% TFA. Assay plates are centrifuged for 2 minutes and the formation of pantothenic acid is detected by RapidFire Mass Spectrometry (mobile phase A: 0.1% formic acid and 0.01% trifluoroacetic acid in water; mobile phase B: 47.5% acetonitrile, 47.5% methanol, 0.1% formic acid and 0.01% trifluoroacetic acid in water) using a C18, 12 μL cartridge (Agilent Cat #G9205A).
The values given in Table I result from measurements of one or more samples. In case of multiple measurements the geometric mean values are given.

Sequence of FLAG-tagged Vanin-1 (AA 22-493, T26I) (O95497 22-493 T26I): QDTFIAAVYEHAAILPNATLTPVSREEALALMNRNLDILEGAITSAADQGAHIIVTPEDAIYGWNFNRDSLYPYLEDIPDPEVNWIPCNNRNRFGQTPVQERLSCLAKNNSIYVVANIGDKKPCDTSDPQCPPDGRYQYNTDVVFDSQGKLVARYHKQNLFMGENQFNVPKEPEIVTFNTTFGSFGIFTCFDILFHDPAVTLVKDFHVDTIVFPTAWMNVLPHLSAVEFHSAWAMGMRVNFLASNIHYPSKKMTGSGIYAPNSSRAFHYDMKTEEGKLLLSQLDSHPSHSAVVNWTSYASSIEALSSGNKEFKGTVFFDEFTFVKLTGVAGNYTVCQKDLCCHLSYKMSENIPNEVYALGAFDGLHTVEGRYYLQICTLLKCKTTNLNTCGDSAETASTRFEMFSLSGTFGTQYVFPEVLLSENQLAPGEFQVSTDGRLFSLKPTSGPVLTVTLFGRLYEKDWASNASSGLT

| IC50 [nM] | SMILES |
| --- | --- |
| 0.2 | CN(C(=O)C1CCC1)[C@H]1CCN(C(=O)c2cnc3c(c2)CC[C@](C)(c2cncnc2)N3)C1 [Example 13.1, N-methyl-N-[(3S)-1-[(7R)-7-Methyl-7-(pyrimidin-5-yl)-5,6,7,8-tetrahydro-1,8-naphthyridine-3-carbonyl]pyrrolidin-3-yl]cyclobutanecarboxamide] |
| 20.3 | CC(=O)N(C)[C@H]1CCN(C(=O)c2cnc3c(c2)CCC(c2ccccc2)N3)C1 (stereo partly drawn) [Example 12.1, N-Methyl-N-[(3S)-1-(7-phenyl-5,6,7,8-tetrahydro-1,8-naphthyridine-3-carbonyl)pyrrolidin-3-yl]acetamide] |
| 2.7 | CN(C(=O)C1CC1)[C@H]1CCN(C(=O)c2cnc3c(c2)CCCC(C)(C)N3)C1 [Example 12.6] |
| 4.3 | CC1(C)CCc2cc(C(=O)N3CC[C@H](N4CCOC4=O)C3)cnc2N1 [Example 11.5] |
| 11.5 | CN(C(=O)C1CC1)[C@H]1CCN(C(=O)c2cnc3c(c2)CC[C@@](C)(c2cncnc2)N3)C1 [Example 13.4] |
| 0.3 | CN(C(=O)C1CC1)[C@H]1CCN(C(=O)c2cnc3c(c2)CC[C@](C)(c2cncnc2)N3)C1 [Example 13.3] |
| 1.4 | CC1(C)CCCc2cc(C(=O)N3CC[C@H](N4CCOC4=O)C3)cnc2N1 [Example 12.7] |
| 1.5 | CC1(C)CCCc2cc(C(=O)N3CC[C@H](N4CCCC4=O)C3)cnc2N1 [Example 12.5] |
| 2.5 | CC(=O)N(C)[C@H]1CCN(C(=O)c2cnc3c(c2)CCCC(C)(C)N3)C1 [Example 12.4] |
| 1.7 | CC1(C)CCc2cc(C(=O)N3CCC4(CCOCC4)C3)cnc2N1 [Example 11.1, 2-(7,7-Dimethyl-5,6,7,8-tetrahydro-1,8-naphthyridine-3-carbonyl)-8-oxa-2-azaspiro[4.5]decane] |
| 0.4 | CC(=O)N(C)[C@H]1CCN(C(=O)c2cnc3c(c2)CCCCN3)C1 [Example 12.3] |

Further lines, the compound ahead of its results:

| SMILES | IC50 [nM] |
| --- | --- |
| CC(=O)N(C)[C@H]1CCN(C(=O)c2cnc3c(c2)C[C@@](C)(c2ccc(F)cc2)N3)C1 [Example 5.4] | 87.1 |
| CC(=O)N(C)[C@H]1CCN(C(=O)c2cnc3c(c2)CC(C)(C)N3)C1 [Example 1.1, N-[(3S)-1-{2,2-Dimethyl-1H,2H,3H-pyrrolo[2,3-b]pyridine-5-carbonyl}pyrrolidin-3-yl]-N-methylacetamide] | 2.5 |
| CC1(C)Cc2cc(C(=O)N3CC[C@H](N4CCOC4=O)C3)cnc2N1 [Example 1.3] | 1.6 |
| C[C@]1(c2cccc(Cl)c2)Cc2cc(C(=O)N3CC[C@H](N4CCCC4=O)C3)cnc2N1 [Example 7.1, (3′S)-1′-[2-(3-Chlorophenyl)-2-methyl-1H,2H,3H-pyrrolo[2,3-b]pyridine-5-carbonyl]-[1,3′-bipyrrolidine]-2-one] | 0.1 |
| CN(C(=O)C1(C)CCC1)[C@H]1CCN(C(=O)c2cnc3c(c2)CC(C)(C)N3)C1 [Example 2.3] | 4.6 |
| CC(=O)N(C)[C@H]1CCN(C(=O)c2cnc3c(c2)C[C@@](C)(c2ccc(Cl)cc2)N3)C1 [Example 9.2, N-[(3S)-1-[(2S)-2-(4-Chlorophenyl)-2-methyl-1H,2H,3H-pyrrolo[2,3-b]pyridine-5-carbonyl]pyrrolidin-3-yl]-N-methylacetamide] | 1.4 |
| CC1(C)Cc2cc(C(=O)N3CC4(CCOCC4)C3)cnc2N1 [Example 1.5] | 10.4 |
| CN(C(=O)C1CC1)[C@H]1CCN(C(=O)c2cnc3c(c2)CC(C)(C)N3)C1 [Example 2.5] | 2.1 |
| CC(=O)N(C)[C@H]1CCN(C(=O)c2cnc3c(c2)C[C@@](C)(c2ccccc2)N3)C1 [Example 9.4] | 25.9 |
| CC1(C)Cc2cc(C(=O)N3CCC4(CCOCC4)C3)cnc2N1 [Example 1.4] | 4.9 |
| CC(=O)N(C)[C@H]1CCN(C(=O)c2cnc3c(c2)C[C@](C)(c2ccc(C#N)cc2)N3)C1 [Example 10, N-[(3S)-1-[(2R)-2-(4-Cyanophenyl)-2-methyl-1H,2H,3H-pyrrolo[2,3-b]pyridine-5-carbonyl]pyrrolidin-3-yl]-N-methylacetamide] | 0.2 |
| CC(=O)N(C)[C@H]1CCN(C(=O)c2cnc3c(c2)C[C@@](C)(c2cccc(F)c2)N3)C1 [Example 4.2] | 1.7 |
